Source: ChEMBL document CHEMBL2176899, “Structure-activity relationships and blood distribution of antiplasmodial aminopeptidase-1 inhibitors” (J Med Chem, 2012)
Converted amounts (≈) assume the structure as drawn. The source made the active and inactive calls. No cut-off for these calls is given here.

Columns and labels:
[1] = biological target: T1, Aminopeptidase N (Sus scrofa, UniProt P15145); experiment: Inhibition of porcine kidney microsomal neutral aminopeptidase using Leu-pNA as substrate preincubated for 10 mins
T1 sequence (P15145 whole entry): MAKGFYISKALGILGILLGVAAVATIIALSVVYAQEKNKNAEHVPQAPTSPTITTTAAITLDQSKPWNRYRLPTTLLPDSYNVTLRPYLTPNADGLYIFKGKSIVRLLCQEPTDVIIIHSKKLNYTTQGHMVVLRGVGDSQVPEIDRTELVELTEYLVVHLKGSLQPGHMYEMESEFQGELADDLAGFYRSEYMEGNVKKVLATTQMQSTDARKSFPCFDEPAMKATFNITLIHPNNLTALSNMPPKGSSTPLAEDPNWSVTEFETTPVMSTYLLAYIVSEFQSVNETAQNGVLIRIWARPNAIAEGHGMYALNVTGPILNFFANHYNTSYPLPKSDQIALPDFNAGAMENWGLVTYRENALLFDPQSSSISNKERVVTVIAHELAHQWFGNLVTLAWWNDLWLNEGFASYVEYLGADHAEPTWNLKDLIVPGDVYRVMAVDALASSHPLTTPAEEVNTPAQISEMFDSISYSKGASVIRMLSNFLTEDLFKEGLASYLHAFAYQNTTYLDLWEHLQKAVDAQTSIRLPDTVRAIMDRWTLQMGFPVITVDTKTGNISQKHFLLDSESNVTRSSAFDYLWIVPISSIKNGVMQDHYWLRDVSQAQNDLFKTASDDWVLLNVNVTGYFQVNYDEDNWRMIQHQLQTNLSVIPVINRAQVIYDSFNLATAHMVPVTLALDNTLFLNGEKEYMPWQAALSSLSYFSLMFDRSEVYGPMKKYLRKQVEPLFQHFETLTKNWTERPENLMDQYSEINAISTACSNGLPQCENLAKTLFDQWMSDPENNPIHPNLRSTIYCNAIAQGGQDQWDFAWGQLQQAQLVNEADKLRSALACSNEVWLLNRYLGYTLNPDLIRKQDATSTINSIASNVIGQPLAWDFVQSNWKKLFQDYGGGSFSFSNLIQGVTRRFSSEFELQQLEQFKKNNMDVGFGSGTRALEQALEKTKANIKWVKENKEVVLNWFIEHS

[2] = Inhibition of Plasmodium falciparum AM1 using Leu-pNA as substrate preincubated for 10 mins
[3] = test system: MRC5; experiment: Cytotoxicity against human MRC5 SV2 cells after 72 hrs by resazurin fluorimetric analysis; assay type: cell-based; settings: MRC5, 72 h
[4] = test system: Plasmodium falciparum; experiment: microbe, parasite or virus in culture; settings: K1, 72 h
Description: Antimalarial activity against Plasmodium falciparum K1 infected in human O positive erythrocytes under low oxygen atmosphere after 72 hrs by spectrophotometric analysis

[5] = test system: Plasmodium falciparum; experiment: microbe, parasite or virus in culture; settings: 3D7, 72 h
Description: Antimalarial activity against Plasmodium falciparum 3D7 infected in human O positive erythrocytes under low oxygen atmosphere after 72 hrs by spectrophotometric analysis

[6] = biological target: Carbonic anhydrase 2 (Homo sapiens) (UniProt P00918); experiment: Inhibition of human erythrocyte carbonic anhydrase-2 assessed as hydrolysis of 4-nitrophenylacetate at 1 to 50 uM
[7] = Metabolic stability in CD1 mouse RBC assessed as N-(4-Fluorobenzyl)-N'-hydroxy-2-[1-phenylmeth-(E)-ylidene]malonamide fromation through GSH-adduct at 50 mg/kg, ip; assay type: ADME, organism-based, Erythrocyte; set-up: dose 50 mg/kg, route intraperitoneal; settings: in vivo
[8] = Elimination half life in CD1 mouse RBC at 50 mg/kg, ip; assay type: ADME, organism-based, Erythrocyte; set-up: dose 50 mg/kg, route intraperitoneal; settings: red blood cells, read-out: beta t1/2 (converted)
[9] = AUC (0 to infinity) in CD1 mouse RBC at 50 mg/kg, ip; assay type: ADME, organism-based, Erythrocyte; set-up: time infinity, dose 50 mg/kg, route intraperitoneal; settings: in vivo
[10] = AUC (0 to last) in CD1 mouse RBC at 50 mg/kg, ip; assay type: ADME, organism-based, Erythrocyte; set-up: dose 50 mg/kg, route intraperitoneal, time 0 - last; settings: red blood cells
[11] = test system: Plasma; experiment: Metabolic stability in CD1 mouse plasma assessed as N-(4-Fluorobenzyl)-N'-hydroxy-2-[1-phenylmeth-(E)-ylidene]malonamide fromation through GSH-adduct at 50 mg/kg, ip; assay type: ADME, organism-based; set-up: dose 50 mg/kg, route intraperitoneal; settings: in vivo
[12] = Elimination half life in CD1 mouse plasma at 50 mg/kg, ip; assay type: ADME, organism-based; set-up: dose 50 mg/kg, route intraperitoneal; settings: read-out: beta t1/2 (converted)
[13] = AUC (0 to infinity) in CD1 mouse plasma at 50 mg/kg, ip; assay type: ADME, organism-based; set-up: time infinity, dose 50 mg/kg, route intraperitoneal
[14] = AUC (0 to last) in CD1 mouse plasma at 50 mg/kg, ip; assay type: ADME, organism-based; set-up: time 0 - last, dose 50 mg/kg, route intraperitoneal
[15] = test system: Plasma; experiment: Tlast in CD1 mouse plasma at 50 mg/kg, ip; assay type: ADME, organism-based; set-up: dose 50 mg/kg, route intraperitoneal; settings: in vivo
[16] = test system: Liver; experiment: Metabolic stability in mouse liver microsomes at 1 uM after 30 mins; assay type: ADME, Microsome; settings: 0.5 h
[17] = Half life in human plasma; assay type: ADME, cell-free
[18] = Drug metabolism assessed as N-(4-Fluorobenzyl)-N'-hydroxy-2-[1-phenylmeth-(E)-ylidene]malonamide fromation through GSH-adduct at 1 uM up to 60 mins; settings: 1 h
[19] = Half life in rat plasma; assay type: ADME, cell-free
[20] = Solubility of the compound in PBS at pH 7.4 after 24 hrs; assay type: physicochemical
[21] = Partition coefficient, log D of the compound in octanol-phosphate buffer at pH 7.4; assay type: physicochemical

Compound | IC50 [1] [µM] | IC50 [2] [µM] | IC50 [3] [µM] | IC50 [4] [µM] | other results
O=C(NO)C(Cc1ccccc1)C(=O)NCc1ccccc1 (centres undefined) | > 10 | 0.125 | – | – | –
O=C(NO)C(Cc1ccc(F)cc1)C(=O)NCc1ccccc1 (centres undefined) | 1.32 | 0.31 | > 64 | 36.5 | –
CC(C)C[C@H](NC(=O)[C@@H](O)[C@H](N)Cc1ccccc1)C(=O)O [UBENIMEX] | – | – | – | – | IC50 [5]: 8 µM
O=C(NO)/C(=C\c1ccc(F)cc1)C(=O)NCc1ccccc1 | 2.4 | 0.069 | – | – | –
O=C(NO)C(Cc1ccc(F)cc1)C(=O)NCc1ccc(F)cc1 (centres undefined) | 3.96 | 0.258 | > 64 | 41.6 | –
CC(Cc1ccccc1)(C(=O)NO)C(=O)NCc1ccc(F)cc1 (centres undefined) | > 10 | 0.056 | > 64 | 50.1 | –
O=C(NO)C(Cc1ccccc1)C(=O)NCc1ccccc1F (centres undefined) | 2.22 | 0.256 | > 64 | 37.9 | –
O=C(NO)/C(=C\c1ccccc1)C(=O)NCc1ccncc1 | 2 | 0.44 | – | – | –
O=C(NO)/C(=C\c1ccccc1)C(=O)NCc1ccc(F)cc1 | – | 0.006 | 32 | 11 | inhibition [6]: inactive; Stability [7]: Stable; half-life [8]: 1.5 h; AUC [9]: 98 µM·h; AUC(0-t) [10]: 90 µM·h; Stability [11]: Stable; half-life [12]: 1 h; AUC(0-inf) [13]: 68 µM·h; AUC(0-t) [14]: 66 µM·h; Tlast [15]: 6 h; Stability [16]: Stable; half-life [17]: > 24 h; Drug metabolism [18]: Active
O=C(NO)C(Cc1ccccc1)C(=O)NCc1cccc(F)c1 (centres undefined) | 2.33 | 0.21 | > 64 | 24.7 | –
O=C(NO)C(Cc1ccccc1)C(=O)NCc1ccncc1 (centres undefined) | 4.55 | 1.05 | > 64 | > 64 | –
O=C(NO)/C(=C/c1ccccc1)C(=O)NCc1ccc(F)cc1 | > 10 | 0.33 | – | – | –
NC(CCc1ccccc1)P(=O)(O)CC(Cc1ccccc1)C(=O)O (centres undefined) | – | – | – | – | IC50 [5]: 24 µM
O=C(NO)C(Cc1ccccc1)C(=O)NCc1ccc(F)cc1 (centres undefined) | – | 0.027 | > 64 | 17.4 | half-life [19]: 0.8 h; half-life [17]: > 24 h; solubility at 24 h [20]: > 200 µM
O=C(NO)/C(=C\c1ccc(F)cc1)C(=O)NCc1ccc(F)cc1 | 4.2 | 0.043 | 32.2 | 30.4 | half-life [19]: 3 h; half-life [17]: > 24 h; logD [21]: 1.7; solubility at 24 h [20]: 190 µM (≈ 63.1 µg/mL)
